The values below come from patent US12390534B2, “Branched degradable polyethylene glycol binder” (NOF CORPORATION, priority 2019, dated 2025).

Bridge positions count the residues as written; N and C are the ends. Ends that are not written are not given here.

The subject of the assay is plasma calcium concentration. Put plainly: Evaluation of physiological activity of PEGylated salmon calcitonin (blood calcium concentration). The format is in vivo, mouse. More on the design: dose or concentration left out as unconfirmed. The following applies: Balb/c mice, sCT dose, plasma at 1, 6, 24 hr, compared to PBS group, FIG. 16. Here is the method:
The method for evaluating the physiological activity of a degradable polyethylene glycol derivative-bonded bio-related substance is not particular limited. For example, when the bio-related substance is insulin, blood sugar concentration is measured, and when it is calcitonin, blood calcium concentration is measured, by periodically collecting blood from the animal that received administration and measuring the substance in the blood by using an appropriate analytical instrument, and the like, based on which the evaluation can be performed. Specifically, in the case of insulin, a glucose measurement kit is used to monitor a decrease in glucose concentration after administration and, in the case of calcitonin, a decrease in calcium concentration after administration is monitored using a calcium measurement kit, based on which the evaluation can be performed.
The physiological activities of 4 groups of sCT-E(FG-200ME)2 which is SCT to which degradable polyethylene glycol derivative with a molecular weight of 40,000 is bonded and methoxy PEG 40 kDa-sCT, in which non-degradable methoxy PEG 40 kDa is bonded, each of which is obtained in Example 9, unmodified sCT, and PBS were comparatively evaluated in animal experiments. […]

“Unmodified sCT: salmon calcitonin (sCT) with the amino acid sequence CSNLSTCVLGKLSQELHKLQTYPRTNTGSGTP (SEQ ID NO: 1) (CSNLSTCVLGKLSQELHKLQTYPRTNTGSGTP-NH2; disulfide 1-7; ends not checked; listed as Oncorhynchus keta)”: the “plasma calcium concentration after administration (in words)” value is reported as “showed an increase in calcium concentration from 6 hr after administration”.
